{"source": "ChEMBL document CHEMBL4229543", "about": "“Squaramides as novel class I and IIB histone deacetylase inhibitors for topical treatment of cutaneous t-cell lymphoma” (Bioorg Med Chem Lett, 2018)", "key": {"[1]": {"assay": "Clearance in human hepatocytes assessed per million cells at 1 uM after 5 to 90 mins by LC-MS/MS analysis", "assay_type": "ADME, cell-based, Hepatocyte", "settings": "read-out: CLH"}, "[2]": {"assay": "Solubility in PG/EtOH (96%) at 30 mg/mL after 24 hrs by UV-spectrometric method", "assay_type": "physicochemical", "settings": "PG/EtOH (96%)"}, "HuT78": {"tested_on": "HuT78", "assay": "Pro-apoptotic activity in human HUT78 cells after 18 hrs by caspase-Glo 3/7 assay", "assay_type": "functional, cell-based", "settings": "HuT78, 18 h"}, "Histone deacetylase 5": {"target": "Histone deacetylase 5 (Homo sapiens, UniProt Q9UQL6)", "sequence (Q9UQL6 whole entry)": "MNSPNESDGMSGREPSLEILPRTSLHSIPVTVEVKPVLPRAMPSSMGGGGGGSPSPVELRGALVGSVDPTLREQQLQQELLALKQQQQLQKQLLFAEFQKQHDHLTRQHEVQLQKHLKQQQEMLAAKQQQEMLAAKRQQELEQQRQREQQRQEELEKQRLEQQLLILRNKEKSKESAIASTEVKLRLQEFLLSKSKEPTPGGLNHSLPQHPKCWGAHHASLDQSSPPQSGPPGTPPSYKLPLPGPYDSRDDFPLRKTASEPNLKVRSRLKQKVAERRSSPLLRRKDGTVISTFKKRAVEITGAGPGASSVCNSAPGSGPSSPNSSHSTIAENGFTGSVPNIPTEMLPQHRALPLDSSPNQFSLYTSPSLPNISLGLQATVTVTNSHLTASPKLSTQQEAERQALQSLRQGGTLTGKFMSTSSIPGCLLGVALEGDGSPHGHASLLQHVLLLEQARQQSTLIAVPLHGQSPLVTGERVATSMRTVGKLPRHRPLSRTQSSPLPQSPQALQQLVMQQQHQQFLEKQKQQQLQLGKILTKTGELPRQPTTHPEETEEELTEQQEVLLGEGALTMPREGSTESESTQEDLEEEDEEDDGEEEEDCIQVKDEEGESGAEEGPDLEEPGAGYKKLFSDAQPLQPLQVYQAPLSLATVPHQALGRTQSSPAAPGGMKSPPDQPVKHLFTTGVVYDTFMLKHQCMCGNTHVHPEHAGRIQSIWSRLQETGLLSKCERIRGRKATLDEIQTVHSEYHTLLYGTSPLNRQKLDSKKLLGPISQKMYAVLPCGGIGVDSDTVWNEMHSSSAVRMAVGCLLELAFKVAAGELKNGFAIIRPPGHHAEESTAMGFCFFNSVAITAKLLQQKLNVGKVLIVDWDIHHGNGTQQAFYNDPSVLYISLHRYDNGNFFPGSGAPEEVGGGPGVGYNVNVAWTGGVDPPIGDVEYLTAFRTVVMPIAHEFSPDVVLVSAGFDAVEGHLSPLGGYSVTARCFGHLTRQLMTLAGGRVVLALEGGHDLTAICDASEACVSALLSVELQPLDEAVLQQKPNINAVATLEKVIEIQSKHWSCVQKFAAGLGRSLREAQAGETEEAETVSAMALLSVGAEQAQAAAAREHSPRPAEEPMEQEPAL", "assay": "Inhibition of human recombinant HDAC5 using fluorogenic HDAC substrate class 2a after 30 mins by fluorimetrc method"}, "Histone deacetylase 7": {"target": "T1, Histone deacetylase 7 (Homo sapiens, UniProt Q8WUI4)", "T1 sequence (Q8WUI4 whole entry)": "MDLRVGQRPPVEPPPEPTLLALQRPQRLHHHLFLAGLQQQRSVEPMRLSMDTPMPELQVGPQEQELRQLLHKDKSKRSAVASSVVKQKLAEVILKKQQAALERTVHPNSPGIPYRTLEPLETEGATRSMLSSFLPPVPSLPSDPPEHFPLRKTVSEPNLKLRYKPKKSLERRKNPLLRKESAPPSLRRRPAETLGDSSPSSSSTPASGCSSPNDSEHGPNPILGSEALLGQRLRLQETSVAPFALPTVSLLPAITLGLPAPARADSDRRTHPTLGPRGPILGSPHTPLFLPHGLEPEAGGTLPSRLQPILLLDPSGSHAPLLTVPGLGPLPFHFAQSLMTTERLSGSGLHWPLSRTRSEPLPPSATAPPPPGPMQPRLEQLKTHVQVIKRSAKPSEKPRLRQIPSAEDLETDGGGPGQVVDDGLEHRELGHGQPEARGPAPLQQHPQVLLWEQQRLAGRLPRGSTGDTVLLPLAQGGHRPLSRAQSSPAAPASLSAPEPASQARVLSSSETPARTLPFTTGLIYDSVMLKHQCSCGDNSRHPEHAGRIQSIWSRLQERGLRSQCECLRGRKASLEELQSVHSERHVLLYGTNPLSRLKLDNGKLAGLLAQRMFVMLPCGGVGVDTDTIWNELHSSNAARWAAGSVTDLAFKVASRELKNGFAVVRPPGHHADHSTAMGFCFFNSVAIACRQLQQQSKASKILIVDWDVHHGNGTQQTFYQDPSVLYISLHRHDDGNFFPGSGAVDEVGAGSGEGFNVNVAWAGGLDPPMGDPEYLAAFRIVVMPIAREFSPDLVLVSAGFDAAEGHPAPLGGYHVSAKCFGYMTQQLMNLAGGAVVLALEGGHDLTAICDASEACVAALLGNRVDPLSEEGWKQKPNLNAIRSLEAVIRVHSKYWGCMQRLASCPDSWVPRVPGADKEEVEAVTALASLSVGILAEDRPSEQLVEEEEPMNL", "assay": "Inhibition of human recombinant HDAC7 using fluorogenic HDAC substrate class 2a after 45 mins by fluorimetrc method"}, "[3]": {"target": "T2, Polyamine deacetylase HDAC10 (Homo sapiens, UniProt Q969S8)", "T2 sequence (Q969S8 whole entry)": "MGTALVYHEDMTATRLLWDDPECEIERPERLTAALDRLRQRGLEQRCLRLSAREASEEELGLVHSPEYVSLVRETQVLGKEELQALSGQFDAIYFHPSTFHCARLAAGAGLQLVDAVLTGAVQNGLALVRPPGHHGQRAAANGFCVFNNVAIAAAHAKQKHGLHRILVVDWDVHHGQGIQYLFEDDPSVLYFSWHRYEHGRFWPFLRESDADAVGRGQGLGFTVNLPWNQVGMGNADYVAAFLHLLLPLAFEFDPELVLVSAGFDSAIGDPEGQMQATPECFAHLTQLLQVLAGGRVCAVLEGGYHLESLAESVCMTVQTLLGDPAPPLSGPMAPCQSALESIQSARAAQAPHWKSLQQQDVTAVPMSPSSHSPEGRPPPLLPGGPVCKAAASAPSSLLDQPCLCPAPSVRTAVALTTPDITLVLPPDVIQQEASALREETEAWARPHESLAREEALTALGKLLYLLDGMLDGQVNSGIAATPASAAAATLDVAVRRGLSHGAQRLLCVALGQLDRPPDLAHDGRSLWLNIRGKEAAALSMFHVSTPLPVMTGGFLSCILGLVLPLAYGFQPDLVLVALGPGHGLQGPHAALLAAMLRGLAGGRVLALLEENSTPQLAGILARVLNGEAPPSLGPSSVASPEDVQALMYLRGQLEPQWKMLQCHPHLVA", "assay": "Inhibition of human recombinant HDAC10 using fluorogenic HDAC substrate after 45 mins by fluorimetrc method"}, "[4]": {"target": "T3, NAD-dependent protein deacetylase sirtuin-2 (Homo sapiens, UniProt Q8IXJ6)", "T3 sequence (Q8IXJ6 whole entry)": "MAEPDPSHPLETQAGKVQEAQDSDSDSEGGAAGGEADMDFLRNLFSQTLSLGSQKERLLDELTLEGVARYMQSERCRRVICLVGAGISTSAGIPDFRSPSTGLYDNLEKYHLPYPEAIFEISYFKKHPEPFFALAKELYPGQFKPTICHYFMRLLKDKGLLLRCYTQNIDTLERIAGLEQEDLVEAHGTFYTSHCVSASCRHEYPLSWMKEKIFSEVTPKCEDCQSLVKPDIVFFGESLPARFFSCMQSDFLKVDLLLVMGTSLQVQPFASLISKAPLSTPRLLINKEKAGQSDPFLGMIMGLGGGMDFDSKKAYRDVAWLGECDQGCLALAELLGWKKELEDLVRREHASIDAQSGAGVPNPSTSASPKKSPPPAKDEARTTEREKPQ", "assay": "Inhibition of human recombinant SIRT2 using fluoro-lysine sirtuin 2 deacetylase substrate after 60 mins by fluorimetrc method"}, "[5]": {"target": "T4, NAD-dependent protein deacetylase sirtuin-7 (Homo sapiens, UniProt Q9NRC8)", "T4 sequence (Q9NRC8 whole entry)": "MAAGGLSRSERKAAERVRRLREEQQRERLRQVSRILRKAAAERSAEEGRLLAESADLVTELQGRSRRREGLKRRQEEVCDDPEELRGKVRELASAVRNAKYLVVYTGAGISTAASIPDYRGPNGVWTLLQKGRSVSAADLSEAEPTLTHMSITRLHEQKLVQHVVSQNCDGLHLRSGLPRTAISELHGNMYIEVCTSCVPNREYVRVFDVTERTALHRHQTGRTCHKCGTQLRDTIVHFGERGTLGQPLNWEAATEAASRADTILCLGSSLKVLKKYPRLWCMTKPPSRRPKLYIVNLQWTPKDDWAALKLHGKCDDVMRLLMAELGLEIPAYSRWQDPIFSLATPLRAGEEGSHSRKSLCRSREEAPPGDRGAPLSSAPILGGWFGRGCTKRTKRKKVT", "assay": "Inhibition of SIRT7 (unknown origin)"}}}
{"smiles": "COc1ccc(Nc2c(NCCCCCC(=O)NO)c(=O)c2=O)cc1", "values": [{"measurement": "hepatocyte CLint at 1 µM", "setting": "[1]", "value": "< 4.7", "unit": "µL/min/1e6 cells"}, {"measurement": "solubility at 24 h", "setting": "[2]", "value": 0.3, "unit": "mM"}, {"measurement": "EC50", "setting": "HuT78", "value": 4.9, "unit": "nM"}, {"measurement": "Ki", "setting": "Histone deacetylase 5", "value": 1000, "unit": "nM"}, {"measurement": "Ki", "setting": "Histone deacetylase 7", "value": "> 10000", "unit": "nM"}, {"measurement": "Ki", "setting": "[3]", "value": 1.2, "unit": "nM"}, {"measurement": "Ki", "setting": "[4]", "value": "> 10000", "unit": "nM"}, {"measurement": "Ki", "setting": "[5]", "value": "> 10000", "unit": "nM"}]}
{"smiles": "CC(C)(CCCCC(=O)NO)Nc1c(Nc2ccc(C(F)(F)F)cc2)c(=O)c1=O", "values": [{"measurement": "hepatocyte CLint at 1 µM", "setting": "[1]", "value": 29, "unit": "µL/min/1e6 cells"}, {"measurement": "solubility at 24 h", "setting": "[2]", "value": 30, "unit": "mM"}, {"measurement": "EC50", "setting": "HuT78", "value": 7.3, "unit": "nM"}, {"measurement": "Ki", "setting": "Histone deacetylase 5", "value": 360, "unit": "nM"}, {"measurement": "Ki", "setting": "Histone deacetylase 7", "value": 1700, "unit": "nM"}, {"measurement": "Ki", "setting": "[3]", "value": 3, "unit": "nM"}, {"measurement": "Ki", "setting": "[4]", "value": "> 10000", "unit": "nM"}, {"measurement": "Ki", "setting": "[5]", "value": "> 10000", "unit": "nM"}]}
{"smiles": "CC(Nc1c(NCCCCCC(=O)NO)c(=O)c1=O)C12CC3CC(CC(C3)C1)C2", "note": "(centres undefined)", "values": [{"measurement": "hepatocyte CLint at 1 µM", "setting": "[1]", "value": "< 5", "unit": "µL/min/1e6 cells"}, {"measurement": "solubility at 24 h", "setting": "[2]", "value": 39, "unit": "mM"}, {"measurement": "EC50", "setting": "HuT78", "value": 98, "unit": "nM"}, {"measurement": "Ki", "setting": "Histone deacetylase 5", "value": 4200, "unit": "nM"}, {"measurement": "Ki", "setting": "Histone deacetylase 7", "value": "> 10000", "unit": "nM"}, {"measurement": "Ki", "setting": "[3]", "value": 50, "unit": "nM"}, {"measurement": "Ki", "setting": "[4]", "value": "> 10000", "unit": "nM"}, {"measurement": "Ki", "setting": "[5]", "value": "> 10000", "unit": "nM"}]}
